# Patent EP1276722B1, “NAPHTHAMIDINE UROKINASE INHIBITORS” (ABBOTT LABORATORIES, priority 2000, dated 2001)
# Target: T1, urokinase enzyme Abbokinase (Homo sapiens, UniProt P00749)
# T1 construct: purchased Abbott Laboratories, Abbott Park, IL
# Assay: Inhibition of urokinase on chromogenic substrate S-2444
# Assay type: biochemical
# Settings: read-out: Ki
# Method: Four concentrations were chosen, then 5 µl of each were diluted to a total assay volume of 200 µL. […] Several vials were reconstituted as directed on the vial, aliquoted, and stored frozen The enzyme was further diluted in assay buffer and 10 µL was used in the assay. Enzyme concentration in the assay was 2-3 nM. The assay was performed as follows: 175 µL of buffer was pipetted inta the polystyrene plate, and 5 µL solution of a compound of this invention in DMSO was added. The mixture was vortexed, treated with 10 µL of enzyme in buffer, vortexed, treated with 10 µL of substrate in water, and vortexed. […] The Spectromax® calculated the reaction rates which were used to calculate percent inhibition of the compounds of this invention versus the reaction rate of the enzyme in the absence of any inhibitor. The Ki's of the inhibitors were calculated from the percent inhibition and previously established Km.
row,SMILES,Ki [nM]
1,"N=C(N)c1ccc2cc(C3CC3c3ccc4c(c3)CCNC4)ccc2c1 (centres unmarked) [Example 46, 6-(2-(1,2,3,4-tetrahydro-6-isoquinolinyl)cyclopropyl)-2-naphthalenecarboximidamide]",180
2,"CCC1CNCc2ccc(C3CC3c3ccc4cc(C(=N)N)ccc4c3)cc21 (centres unmarked) [Example 48, 6-(2-(4-ethyl-1,2,3,4-tetrahydro-6-isoquinolinyl)cyclopropyl)-2-naphthalenecarboximidamide]",29
3,"CCC1CN(Cc2ccccc2)Cc2ccc(C3CC3c3ccc4cc(C(=N)N)ccc4c3)cc21 (centres unmarked) [Example 49, 6-(2-(2-benzyl-4-ethyl-1,2,3,4-tetrahydro-6-isoquinolinyl)cyclopropyl)-2-naphthalenecarboximidamide]",278
4,"CCC1CNCc2ccc(C=Cc3ccc4cc(C(=N)N)ccc4c3)cc21 (centres unmarked) [Example 50, 6-(2-(4-ethyl-1,2,3,4-tetrahydro-6-isoquinolinyl)ethenyl)-2-naphthalenecarboximidamide]",43
5,"CCC1CN(C)Cc2ccc(C3CC3c3ccc4cc(C(=N)N)ccc4c3)cc21 (centres unmarked) [Example 51, 6-(2-(4-ethyl-2-methyl-1,2,3,4-tetrahydro-6-isoquinolinyl)cyclopropyl)-2-naphthalenecarboximidamide]",123
6,"CCC1CN(C(C)=O)Cc2ccc(C3CC3c3ccc4cc(C(=N)N)ccc4c3)cc21 (centres unmarked) [Example 52, 6-(2-(2-acetyl-4-ethyl-1,2,3,4-tetrahydro-6-isoquinolinyl)cyclopropyl)-2-naphthalenecarboximidamide]",530
7,"CCC1CN=C(C(C)C)c2ccc(C3CC3c3ccc4cc(C(=N)N)ccc4c3)cc21 (centres unmarked) [Example 54, 6-(2-(4-ethyl-1-isopropyl-3,4-dihydro-6-isoquinolinyl)cyclopropyl)-2-naphthalenecarboximidamide]",343
8,"CCC1CN=C(C(C)C)c2ccc(C=Cc3ccc4cc(C(=N)N)ccc4c3)cc21 (centres unmarked) [Example 55, 6-(2-(4-ethyl-1-isopropyl-3,4-dihydro-6-isoquinolinyl)ethenyl)-2-naphthalenecarboximidamide]",255
9,"N=C(N)c1ccc2cc(C3CC3c3ccc4c(c3)C(C3CCCCC3)=NCC4)cc(Br)c2c1 (centres unmarked) [Example 56, 8-bromo-6-(2-(1-cyclohexyl-3,4-dihydro-7-isoquinolinyl)cyclopropyl)-2-naphthalenecarboximidamide]",18
10,"CN1CCc2ccc(C3CC3c3cc(Br)c4cc(C(=N)N)ccc4c3)cc2C1C1CCCCC1 (centres unmarked) [Example 57, 8-bromo-6-(2-(1-cyclohexyl-2-methyl-1,2,3,4-tetrahydro-7-isoquinolinyl)cyclopropyl)-2-naphthalenecarboximidamide]",25
11,"CC(C)/C=C/c1cc(C2CC2c2ccc3c(c2)C(C2CCCCC2)=NCC3)cc2ccc(C(=N)N)cc12 (centres unmarked) [Example 58, 6-(2-(1-cyclohexyl-3,4-dihydro-7-isoquinolinyl)cyclopropyl)-8-((1E)-3-methyl-1-butenyl)-2-naphthalenecarboximidamide]",10
12,"CC(C)/C=C/c1cc(C2CC2c2ccc3c(c2)C(C2CCCCC2)N(C)CC3)cc2ccc(C(=N)N)cc12 (centres unmarked) [Example 59, 6-(2-(1-cyclohexyl-2-methyl-1,2,3,4-tetrahydro-7-isoquinolinyl)cyclopropyl)-8-((1E)-3-methyl-1-butenyl)-2-naphthalenecarboximidamide]",10

# System: tumor metastasis
# Assay: not given
# Settings: Anticancer Res. 1988, 8, 1373-1376; cited from earlier work
row,SMILES,tumor metastasis in vivo
1,N=C(N)NC(=O)c1nc(Cl)c(N)nc1N [Amiloride],inhibit

# System: angiogenesis
# Assay: not given
# Settings: J. Cell Biol. 1991, 115[3 Pt 2], 402a; cited from earlier work
row,SMILES,angiogenesis in vitro
1,N=C(N)NC(=O)c1nc(Cl)c(N)nc1N [Amiloride],inhibit
